Where only a bound is given, the exact number is not on record here.

In this assay the test system is Ad5. As to the kind of experiment: Ad5 genome replication assay (cell-based QPCR) in A549 cells. The settings on record: Human adenovirus sp., A549, 72 h, read-out: Ad5 qPCR EC50 (μM). How it is done:
Compounds of the present invention were tested for potency against Ad5 in an Ad5 genome replication assay, a cell-based QPCR assay of Ad5 genome replication in A549 cells, a human lung carcinoma cell line. Serotype of human Ad5, used in this replication assay can also replicate in a NZW rabbit model of adenoviral ocular keratitis.
EC50 values (μM) for inhibition of adenoviral replication were determined by QPCR. Briefly, 10,000 cultured A549 cells were inoculated with 25,000 pfu/well for 3 hrs in 2% FBS F12-K A549 culture media. Following inoculation, A549 cells were treated with log unit dilutions of compound of Formula I (˜10 μM thru˜10 pM) in 10% FBS F12-K culture media with 0.3% DMSO for an additional 3 days. Cell viability was assessed with Alamar Blue (10 μl/well for 2 hrs; fluorescence Ex353; Em595 nm). Plates were washed 3 times with 125 μl PBS, cell lysates were prepared for QPCR analysis using Cells to SNP kit (Life Technologies). Ad5 genome levels per cell were determined with RNaseP and Ad5 hexon Taqman Assays (Life Technologies). EC50, the concentration that inhibited Ad5 genome replication formation by 50%, was estimated from plots of Ad5 genomes/cell vs. compound concentration.
In general terms: Quantitative PCR measures a nucleic acid by following its amplification.
The EC50 is the concentration giving half of the maximal effect. For `CC(C)CC1c2[nH]c3ccc(Cl)cc3c2CCN1C(=O)CCc1ccccc1` (centres unmarked) [Compound 1], the EC50 was in the range of 0.1 to 1 µM.

Take `CC(C)CC1c2[nH]c3ccc(Cl)cc3c2CCN1C(=O)CCN1CCOCC1` (centres unmarked) [Compound 2]: the EC50 is over 1 µM.

Consider `CC(C)CC1c2[nH]c3ccc(Cl)cc3c2CCN1C(=O)CCN1CCCCC1` (centres unmarked) [Compound 3], for which the EC50 was over 1 µM.

For the molecule `Cc1ccc(C2c3[nH]c4ccc(Cl)cc4c3CCN2C(=O)CCN2CCC(F)(F)CC2)cc1` (centres unmarked) [Compound 4], the EC50 was in the range of 0.1 to 1 µM.

Take `O=C(CCN1CCC(F)(F)CC1)N1CCc2c([nH]c3ccc(Cl)cc23)C1c1ccc(F)cc1` (centres unmarked) [Compound 5]: the EC50 was over 1 µM.

For the molecule `CC(C)CC1c2[nH]c3ccc(Cl)cc3c2CCN1C(=O)CN1CCC(F)(F)CC1` (centres unmarked) [Compound 7], the EC50 fell in the range of 0.1 to 1 µM.

With `CC(C)CC1c2[nH]c3ccc(Cl)cc3c2CCN1C(=O)CN1CCC(C(F)(F)F)CC1` (centres unmarked) [Compound 8], the EC50 was in the range of 0.1 to 1 µM.

For `O=C(CCN1CCC(F)(F)CC1)N1CCc2c([nH]c3ccc(Cl)cc23)C1CC1CCCC1` (centres unmarked) [Compound 9], the EC50 was in the range of 0.1 to 1 µM.

Take `CC(C)(C)CC1c2[nH]c3ccc(Cl)cc3c2CCN1C(=O)CCN1CCC(F)(F)CC1` (centres unmarked) [Compound 10]: the EC50 was in the range of 0.1 to 1 µM.

Regarding `CC(C)CC1c2[nH]c3ccc(Cl)cc3c2CCN1C(=O)CCN1CCC(F)(F)C1` (centres unmarked) [Compound 11], the EC50 is 0.1 to 1 µM.

On to `CC(C)CC1c2[nH]c3ccc(Cl)cc3c2CCN1C(=O)CCCN1CCC(F)(F)CC1` (centres unmarked) [Compound 12], for which the concentration for a half-maximal effect (EC50) was over 1 µM.

For the molecule `CC(C)CC1c2[nH]c3ccc(Cl)cc3c2CCN1C(=O)CCN1CCCC(F)(F)C1` (centres unmarked) [Compound 13], the EC50 was 0.1 to 1 µM.

`CC(C)CC1c2[nH]c3ccc(Cl)cc3c2CCN1C(=O)OCCN1CCC(F)(F)CC1` (centres unmarked) [Compound 14]: the EC50 lay in the range of 0.1 to 1 µM.

With `CC(C)CC1c2[nH]c3ccc(Cl)cc3c2CCN1C(=O)CCN1CCC(C)CC1` (centres unmarked) [Compound 15], the EC50 is over 1 µM.

Turning to `CC(C)CC1c2[nH]c3ccc(Cl)cc3c2CCN1C(=O)CCN1CCC(CF)CC1` (centres unmarked) [Compound 16], the EC50 was in the range of 0.1 to 1 µM.

As for `CC(C)CC1c2[nH]c3ccc(Cl)cc3c2CCN1C(=O)OCCN1CCC(C(F)(F)F)C1` (centres unmarked) [Compound 17], the half-maximal effective concentration (EC50) was 0.1 to 1 µM.

For `CC(C)CC1c2[nH]c3ccc(Cl)cc3c2CCN1C(=O)OCCN1CCC(F)(F)C1` (centres unmarked) [Compound 18], the EC50 was 0.1 to 1 µM.

Regarding `CC(C)CC1c2[nH]c3ccc(Cl)cc3c2CCN1C(=O)CCN1CCSCC1` (centres unmarked) [Compound 19], the EC50 lay in the range of 0.1 to 1 µM.

Regarding `CC(C)C[C@H]1c2[nH]c3ccc(Cl)cc3c2CCN1C(=O)CCN1CCC(C(F)(F)F)CC1` [Compound 20, (S)-1-(6-chloro-1-isobutyl-3,4-dihydro-1H-pyrido[3,4-b]indol-2(9H)-yl)-3-(4-(trifluoromethyl)piperidin-1-yl)propan-1-one], the EC50 was 0.1 to 1 µM.

In the case of `CC(C)CC1c2[nH]c3ccc(Cl)cc3c2CCN1C(=O)OCCN1CC(F)C1` (centres unmarked) [Compound 21], the EC50 was over 1 µM.

On to `CC(C)CC1c2[nH]c3ccc(Cl)cc3c2CCN1C(=O)OCCN1CCC(C(F)F)CC1` (centres unmarked) [Compound 22], for which the EC50 was over 1 µM.

With `CC(C)CC1c2[nH]c3ccc(Cl)cc3c2CCN1C(=O)OCCN1CCC(F)CC1` (centres unmarked) [Compound 23], the EC50 is over 1 µM.

For the molecule `CC(C)CC1c2[nH]c3ccc(Cl)cc3c2CCN1C(=O)OCCN1CCC(CF)CC1` (centres unmarked) [Compound 24], the EC50 was over 1 µM.

`CC(C)CC1c2[nH]c3ccc(Cl)cc3c2CCN1C(=O)C1(C#N)CC1` (centres unmarked) [Compound 25]: the EC50 is over 1 µM.

In the case of `CC(C)CC1c2[nH]c3ccc(Cl)cc3c2CCN1C(=O)OCCN1CC(F)(F)C1` (centres unmarked) [Compound 26], the EC50 lay in the range of 0.1 to 1 µM.

Consider `O=C(CCN1CCC(F)CC1)N1CCc2c([nH]c3ccc(Cl)cc23)C1CC1CCCC1` (centres unmarked) [Compound 27], for which the EC50 lay within 0.1 to 1 µM.

On to `CC(C)C[C@H]1c2[nH]c3ccc(Cl)cc3c2CCN1C(=O)CCN1CCC(F)CC1` [Compound 28, (S)-1-(6-chloro-1-isobutyl-3,4-dihydro-1H-pyrido[3,4-b]indol-2(9H)-yl)-3-(4-fluoropiperidin-1-yl)propan-1-one], for which the EC50 lay within 0.1 to 1 µM.

Regarding `CC(C)C[C@H]1c2[nH]c3ccc(Cl)cc3c2CCN1C(=O)CCN1CCC(C(F)F)CC1` [Compound 29, (S)-1-(6-chloro-1-isobutyl-3,4-dihydro-1H-pyrido[3,4-b]indol-2(9H)-yl)-3-(4-(difluoromethyl)piperidin-1-yl)propan-1-one], the EC50 was 0.1 to 1 µM.

As to `CC(C)(C)CC1c2[nH]c3ccc(Cl)cc3c2CCN1C(=O)CCN1CCC(F)CC1` (centres unmarked) [Compound 30], the EC50 is over 1 µM.

For the molecule `O=C(CCN1CCC(C(F)F)CC1)N1CCc2c([nH]c3ccc(Cl)cc23)C1CC1CCCC1` (centres unmarked) [Compound 31], the EC50 was in the range of 0.1 to 1 µM.

Turning to `CC(C)(C)CC1c2[nH]c3ccc(Cl)cc3c2CCN1C(=O)CCN1CCC(C(F)F)CC1` (centres unmarked) [Compound 32], the EC50 is over 1 µM.

For the molecule `CC(C)CC1c2[nH]c3ccc(Cl)cc3c2CCN1C(=O)C(C)(C)CN1CCC(F)(F)CC1` (centres unmarked) [Compound 33], the EC50 was over 1 µM.

Consider `CC(C)C[C@H]1c2[nH]c3ccc(Cl)cc3c2CCN1C(=O)CCNC1CCC(F)(F)CC1` [Compound 34], for which the EC50 was over 1 µM.

With `CC(C)CC1c2[nH]c3ccc(Cl)cc3c2CCN1S(=O)(=O)CCN1CCC(F)(F)CC1` (centres unmarked) [Compound 36], the EC50 is over 1 µM.

As for `CC(C)CC1c2[nH]c3ccc(Cl)cc3c2CCN1C(=O)C(C)CN1CCC(F)(F)CC1` (centres unmarked) [Compound 37], the EC50 was 0.1 to 1 µM.

`CC(C)C[C@H]1c2[nH]c3ccc(Cl)cc3c2CCN1C(=O)OCCN1CC[C@H](F)C1` [Compound 38]: the EC50 lay within 0.1 to 1 µM.

Consider `CC(C)CC1c2[nH]c3ccc(Cl)cc3c2CCN1C(=O)C1CN(CC(C)C)C1` (centres unmarked) [Compound 39], for which the EC50 was over 1 µM.

Regarding `CC(C)CC1c2[nH]c3ccc(Cl)cc3c2CCN1C(=O)CNC1CCCCC1` (centres unmarked) [Compound 40], the EC50 is over 1 µM.

For the molecule `CC(C)CC1c2[nH]c3ccc(Cl)cc3c2CCN1C(=O)CN1CC(F)C1` (centres unmarked) [Compound 41], the EC50 lay within 0.1 to 1 µM.

As to `CC(C)CC1c2[nH]c3ccc(Cl)cc3c2CCN1C(=O)CC1CCCO1` (centres unmarked) [Compound 42], the EC50 was 0.1 to 1 µM.

Take `CC(C)CC1c2[nH]c3ccc(Cl)cc3c2CCN1C(=O)CCN1CCCCC12CC2` (centres unmarked) [Compound 44]: the EC50 lay in the range of 0.1 to 1 µM.

In the case of `CC(C)CC1c2[nH]c3ccc(Br)cc3c2CCN1C(=O)CCN1CCC(F)(F)CC1` (centres unmarked) [Compound 45], the EC50 was under 0.1 µM.

For the molecule `CC(C)CC1c2[nH]c3ccc(Cl)cc3c2CCN1C(=O)CCC1CCN(CC(F)F)CC1` (centres unmarked) [Compound 46], the EC50 fell in the range of 0.1 to 1 µM.

With `CC(C)CC1c2[nH]c3ccc(Cl)cc3c2CCN1C(=O)CC(O)c1ccccc1` (centres unmarked) [Compound 48], the EC50 lay within 0.1 to 1 µM.

Regarding `CC(C)CC1c2[nH]c3ccc(Cl)cc3c2CCN1C(=O)CN1CC[C@H](F)C1` (some centres unmarked) [Compound 49], the EC50 was over 1 µM.

In the case of `CC(C)CC1c2[nH]c3ccc(Cl)cc3c2CCN1C(=O)C1CCN(CCC(F)(F)F)CC1` (centres unmarked) [Compound 50], the EC50 is 0.1 to 1 µM.

`COc1ccc2[nH]c3c(c2c1)CCN(C(=O)CCN1CCC(F)(F)CC1)C3CC(C)C` (centres unmarked) [Compound 51]: the EC50 is 0.1 to 1 µM.

Take `CC(C)CC1c2[nH]c3ccc(Cl)cc3c2CCN1C(=O)c1ccccn1` (centres unmarked) [Compound 52]: the EC50 lay in the range of 0.1 to 1 µM.

As for `CC(C)CC1c2[nH]c3ccc(Cl)cc3c2CCN1C(=O)COC1CCN(CC(F)F)CC1` (centres unmarked) [Compound 53], the EC50 was over 1 µM.

With `CC(C)C[C@H]1c2[nH]c3ccc(Cl)cc3c2CCN1C(=O)C1CN(CC(F)F)C1` [Compound 54], the EC50 is 0.1 to 1 µM.

On to `CC(C)CC1c2[nH]c3ccc(Cl)cc3c2CCN1C(=O)CN1CCOCC1` (centres unmarked) [Compound 55], for which the EC50 is over 1 µM.

Take `CC(C)CC1c2[nH]c3ccc(Cl)cc3c2CCN1c1nc(CN2CCC(F)(F)CC2)co1` (centres unmarked) [Compound 56]: the EC50 is 0.1 to 1 µM.

On to `CC(C)CC1c2[nH]c3ccc(Cl)cc3c2CCN1c1nc(CN2CCC(F)CC2)co1` (centres unmarked) [Compound 57], for which the EC50 was 0.1 to 1 µM.

On to `CC(C)CC1c2[nH]c3ccc(Cl)cc3c2CCN1C(=O)CCc1ccco1` (centres unmarked) [Compound 58], for which the EC50 is under 0.1 µM.

With `CC(C)CC1c2[nH]c3ccc(Cl)cc3c2CCN1C(=O)Cc1ccccn1` (centres unmarked) [Compound 59], the EC50 is over 1 µM.

Regarding `CC(C)CC1c2[nH]c3ccc(Cl)cc3c2CCN1C(=O)Cc1cccnc1` (centres unmarked) [Compound 60], the EC50 is over 1 µM.

As to `CC(C)CC1c2[nH]c3ccc(Cl)cc3c2CCN1C(=O)Cc1ccncc1` (centres unmarked) [Compound 61], the EC50 is over 1 µM.

In the case of `CC(C)CC1c2[nH]c3ccc(Cl)cc3c2CCN1C(=O)c1ccccc1` (centres unmarked) [Compound 62], the EC50 fell in the range of 0.1 to 1 µM.

As for `CC(C)CC1c2[nH]c3ccc(Cl)cc3c2CCN1C(=O)Cc1ccccc1` (centres unmarked) [Compound 63], the EC50 lay in the range of 0.1 to 1 µM.

For the molecule `CC(C)CC1c2[nH]c3ccc(Cl)cc3c2CCN1C(=O)c1cccnc1` (centres unmarked) [Compound 64], the EC50 is 0.1 to 1 µM.

Turning to `CC(C)CC1c2[nH]c3ccc(Cl)cc3c2CCN1C(=O)c1ccncc1` (centres unmarked) [Compound 65], the EC50 was in the range of 0.1 to 1 µM.

Consider `CC(C)CC1c2[nH]c3ccc(Cl)cc3c2CCN1C(=O)c1ccco1` (centres unmarked) [Compound 66], for which the concentration giving a half-maximal response (EC50) was over 1 µM.

In the case of `CC(C)CC1c2[nH]c3ccc(Cl)cc3c2CCN1C(=O)C1CCN(c2ncccn2)CC1` (centres unmarked) [Compound 67], the EC50 was in the range of 0.1 to 1 µM.

For the molecule `CC(C)CC1c2[nH]c3ccc(Cl)cc3c2CCN1C(=O)COC1CCCCC1` (centres unmarked) [Compound 68], the EC50 was 0.1 to 1 µM.

In the case of `CC(C)CC1c2[nH]c3ccc(Cl)cc3c2CCN1C(=O)COC1CCN(C2CC2)CC1` (centres unmarked) [Compound 69], the EC50 is over 1 µM.

Source of the values: patent US20130116219A1, “ANTIMICROBIAL CARBOLINE COMPOUNDS” (ALCON RESEARCH, LTD., priority 2011, published 2013).
